Test [1] relates to Human Umbilical Vein Endothelial Cell (HUVEC). The experiment in a line: Inhibitory effect on growth of human umbilical vein endothelial cell (HUVEC), MTS. It counts as cell-based. The note with it: 10 ng/ml VEGF, absorbance 490 nm.
For the next test, the target named is VEGFR2 (KDR) (Homo sapiens (Human), UniProt P35968). The experiment in a line: VEGFR2 (KDR) enzyme assay, fluorescence polarization. It counts as biochemical. The note with it: 5 μM ATP, poly(Glu, Tyr) substrate. The method in brief: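 Buffer: 20 mM HEPES pH 7.4 with 5 mM MgCl2, 2 mM MnCl2 and 50 μM Na3VO4. Compound (0.0001–10 μM) was premixed 10 min with VEGFR2 (200 ng/10 μl), then poly(Glu,Tyr) substrate (10 ng/ml) and 5 μM ATP were added for 1 h at room temperature. EDTA-quenched samples were read by FP after 30 min with antibody and tracer.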
Sequence of VEGFR2 (KDR) (P35968 20-1356): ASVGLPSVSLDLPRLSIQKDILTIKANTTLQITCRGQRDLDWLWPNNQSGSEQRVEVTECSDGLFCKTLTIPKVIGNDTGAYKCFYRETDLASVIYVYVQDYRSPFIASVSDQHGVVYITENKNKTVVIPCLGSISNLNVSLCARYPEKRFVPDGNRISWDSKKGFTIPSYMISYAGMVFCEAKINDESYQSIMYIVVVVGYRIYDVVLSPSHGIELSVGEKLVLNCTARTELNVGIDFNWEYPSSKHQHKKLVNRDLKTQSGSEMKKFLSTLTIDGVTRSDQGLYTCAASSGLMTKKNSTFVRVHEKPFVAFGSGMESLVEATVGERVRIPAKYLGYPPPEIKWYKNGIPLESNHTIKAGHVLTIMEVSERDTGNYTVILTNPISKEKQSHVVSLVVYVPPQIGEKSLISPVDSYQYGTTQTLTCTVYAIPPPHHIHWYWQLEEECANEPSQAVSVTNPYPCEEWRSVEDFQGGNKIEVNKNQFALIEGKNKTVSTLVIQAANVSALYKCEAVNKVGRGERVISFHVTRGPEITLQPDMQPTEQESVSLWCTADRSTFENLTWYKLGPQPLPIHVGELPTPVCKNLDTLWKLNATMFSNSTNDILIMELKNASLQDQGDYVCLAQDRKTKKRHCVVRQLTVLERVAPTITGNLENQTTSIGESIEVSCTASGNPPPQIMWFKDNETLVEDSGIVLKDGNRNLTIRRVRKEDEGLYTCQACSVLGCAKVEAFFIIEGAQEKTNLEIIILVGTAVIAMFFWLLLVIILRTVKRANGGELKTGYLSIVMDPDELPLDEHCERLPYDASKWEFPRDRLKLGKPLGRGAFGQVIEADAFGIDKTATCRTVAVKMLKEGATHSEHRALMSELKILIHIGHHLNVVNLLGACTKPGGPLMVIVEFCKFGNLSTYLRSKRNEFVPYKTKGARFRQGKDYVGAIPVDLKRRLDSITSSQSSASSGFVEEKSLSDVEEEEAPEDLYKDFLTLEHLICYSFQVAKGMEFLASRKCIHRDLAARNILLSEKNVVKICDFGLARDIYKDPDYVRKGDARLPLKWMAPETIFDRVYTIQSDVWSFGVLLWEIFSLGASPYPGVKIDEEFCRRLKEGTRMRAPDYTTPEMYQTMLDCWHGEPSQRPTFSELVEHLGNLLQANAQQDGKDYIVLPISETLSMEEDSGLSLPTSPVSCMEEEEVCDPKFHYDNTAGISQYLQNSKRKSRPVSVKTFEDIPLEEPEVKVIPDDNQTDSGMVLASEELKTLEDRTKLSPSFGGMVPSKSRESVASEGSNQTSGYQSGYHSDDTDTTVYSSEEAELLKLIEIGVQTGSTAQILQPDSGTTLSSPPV
(In fluorescence polarisation assays a small probe gives low polarisation when free and higher when bound to something large.)

The target in another test is EGFR1 (HER-1) (Homo sapiens (Human), UniProt P00533). The experiment in a line: EGFR1 (HER-1) enzyme assay, fluorescence polarization. It is filed as biochemical. The note with it: 100 μM ATP, poly(Glu, Tyr) substrate.
Test [2] has as its system skin cancer cell line, A431. Briefly: Inhibitory effect on growth of cancer cell line A431, SRB. It is filed as cell-based. Particulars: overexpressed EGFR1 (HER-1). Put shortly: (§1)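 Growth inhibition was measured by sulforhodamine-B staining (absorbance 570 nm) of TCA-fixed cells after 72 h compound exposure at 37 °C, 5% CO2. Test concentrations ran from 10 μM in 10-fold steps to 10^−4, with DMSO below 1%, in 10% FBS DMEM.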

Test [3] deals with breast cancer cell line, SK-Br3. Briefly: Inhibitory effect on growth of cancer cell line SK-Br3, SRB. It is filed as cell-based. Particulars: overexpressed EGFR2 (HER-2). Put shortly: as §1
For test [4], the system named is colon and rectal cancer cell line, SW-620. Briefly: Inhibitory effect on growth of cancer cell line SW-620, SRB. It is filed as cell-based. Particulars: not having overexpressed EGFR and EGFR2. The method in brief: as §1

As for `C=CC(=O)Nc1cc2c(Nc3ccc(Br)cc3F)ncnc2cc1OCC(CC)NC(=O)CN(C)C` (stereo not drawn) [Example 160, N-{4-(4-bromo-2-fluoro-phenylamino)-7-[2-(2-dimethylamino-acetylamino)-butoxy]-quinazolin-6-yl}-acrylamide], the IC50 stood at 867 nM in test [1] (Homo sapiens, 96 h); 984 nM against VEGFR2 (KDR); 23 nM against EGFR1 (HER-1); 55 nM in test [2] (Homo sapiens, A-431, 72 h); 96 nM in test [3] (Homo sapiens, SK-BR-3, 72 h); 6.55 µM in test [4] (Homo sapiens, 72 h).
`C=CC(=O)Nc1cc2c(Nc3ccc(Br)cc3F)ncnc2cc1OCCNC(=O)C(COC)N(C)C` (stereo not drawn) [Example 161, N-{4-(4-bromo-2-fluoro-phenylamino)-7-[2-(2-dimethylamino-3-methoxy-propionylamino)-ethoxy]-quinazolin-6-yl}-acrylamide]: the half-inhibitory concentration (IC50) came to 1230 nM in test [1] (Homo sapiens, 96 h); 1120 nM against VEGFR2 (KDR); 57 nM against EGFR1 (HER-1); 95 nM in test [2] (Homo sapiens, A-431, 72 h); 118 nM in test [3] (Homo sapiens, SK-BR-3, 72 h); 10 µM in test [4] (Homo sapiens, 72 h).
On to `C=CC(=O)Nc1cc2c(Nc3ccc(Br)c(Cl)c3F)ncnc2cc1OC[C@H](C)NC(=O)CN(C)C` [Example 163, (S)—N-4-(4-bromo-3-chloro-2-fluoro-phenylamino)-7-[2-(2-dimethylamino-acetylamino)-propoxy]-quinazolin-6-yl-acrylamide], for which the IC50 was 735 nM in test [1] (96 hours); 722 nM at VEGFR2 (KDR); 12 nM on EGFR1 (HER-1); 18 nM in test [2] (72 hours); 45 nM in test [3] (72 hours); 10 µM in test [4] (72 hours).
On to `C=CC(=O)Nc1cc2c(Nc3ccc(Br)c(Cl)c3F)ncnc2cc1OC[C@@H](C)NC(=O)CN(C)C` [Example 164, (R)—N-4-(4-bromo-3-chloro-2-fluoro-phenylamino)-7-[2-(2-dimethylamino-acetylamino)-propoxy]-quinazolin-6-yl-acrylamide], for which the 50% inhibitory concentration (IC50) in test [1] (96 hours) is 754 nM; against VEGFR2 (KDR) it was 713 nM; against EGFR1 (HER-1), 14 nM; in test [2] (72 hours) it was 19 nM; in test [3] (72 hours), 36 nM; in test [4] (72 hours) it was 8.97 µM.
Turning to `C=CC(=O)Nc1cc2c(Nc3ccc(Br)c(Cl)c3F)ncnc2cc1OCCNC(=O)OC` [Example 165, {2-[6-acryloylamino-4-(4-bromo-3-chloro-2-fluoro-phenylamino)-quinazolin-7-yloxy]-ethyl}-carbamic acid methylester], the IC50 in test [1] (Homo sapiens, 96 h) was 189 nM; against VEGFR2 (KDR) it was 79 nM; against EGFR1 (HER-1) it was 98 nM; in test [2] (Homo sapiens, A-431, 72 h), 137 nM; in test [3] (Homo sapiens, SK-BR-3, 72 h), 198 nM; in test [4] (Homo sapiens, 72 h), 9.77 µM.
As for `C=CC(=O)Nc1cc2c(Nc3ccc(Br)cc3F)ncnc2cc1OCCNC(=O)CN(CC)CC` [Example 167, N-{4-(4-bromo-2-fluoro-phenylamino)-7-[2-(2-diethylamino-acetylamino)-ethoxy]-quinazolin-6-yl}-acrylamide], the half-maximal inhibitory concentration (IC50) was 108 nM in test [1] (Homo sapiens, 96 h); 462 nM at VEGFR2 (KDR); 26 nM against EGFR1 (HER-1); 42 nM in test [2] (Homo sapiens, A-431, 72 h); 103 nM in test [3] (Homo sapiens, SK-BR-3, 72 h); 10 µM in test [4] (Homo sapiens, 72 h).
For `C=CC(=O)Nc1cc2c(Nc3ccc(Br)c(Cl)c3F)ncnc2cc1OCCNC(=O)NCC` [Example 168, N-{4-(4-bromo-3-chloro-2-fluoro-phenylamino)-7-[2-(3-ethyl-ureido)-ethoxy]-quinazolin-6-yl}-acrylamide], the IC50 in test [1] (Homo sapiens, 96 h) is 117 nM; against VEGFR2 (KDR) it was 38 nM; at EGFR1 (HER-1), 8 nM; in test [2] (Homo sapiens, A-431, 72 h), 12 nM; in test [3] (Homo sapiens, SK-BR-3, 72 h) it was 32 nM; in test [4] (Homo sapiens, 72 h) it was 10 µM.
Turning to `C=CC(=O)Nc1cc2c(Nc3ccc(Br)c(Cl)c3F)ncnc2cc1OCCNC(=O)NCCC` [Example 169, N-{4-(4-bromo-3-chloro-2-fluoro-phenylamino)-7-[2-(3-propyl-ureido)-ethoxy]-quinazolin-6-yl}-acrylamide], the IC50 in test [1] (Homo sapiens, 96 h) was found to be 233 nM; on VEGFR2 (KDR) it was 128 nM; at EGFR1 (HER-1) it was 26 nM; in test [2] (Homo sapiens, A-431, 72 h) it was 35 nM; in test [3] (Homo sapiens, SK-BR-3, 72 h) it was 67 nM; in test [4] (Homo sapiens, 72 h), 9.1 µM.
For `C=CC(=O)Nc1cc2c(Nc3ccc(Br)c(Cl)c3F)ncnc2cc1OCCNC(=S)NCC` [Example 170, N-{4-(4-bromo-3-chloro-2-fluoro-phenylamino)-7-[2-(3-ethyl-thioureido)-ethoxy]-quinazolin-6-yl}-acrylamide], the IC50 in test [1] (Homo sapiens, 96 h) turned out to be 287 nM; at VEGFR2 (KDR) it was 189 nM; at EGFR1 (HER-1), 68 nM; in test [2] (Homo sapiens, A-431, 72 h) it was 89 nM; in test [3] (Homo sapiens, SK-BR-3, 72 h), 43 nM; in test [4] (Homo sapiens, 72 h) it was 8.25 µM.
Regarding `C=CC(=O)Nc1cc2c(Nc3ccc(Br)cc3F)ncnc2cc1OCC1CCN(C(=O)NCC)CC1` [Example 171, 4-[6-acryloylamino-4-(4-bromo-2-fluoro-phenylamino)-quinazolin-7-yloxymethyl]-piperidine-1-carboxylic acid ethylamide], the half-inhibitory concentration (IC50) came to 150 nM in test [1] (Homo sapiens, 96 h); 136 nM against VEGFR2 (KDR); 20 nM at EGFR1 (HER-1); 25 nM in test [2] (Homo sapiens, A-431, 72 h); 147 nM in test [3] (Homo sapiens, SK-BR-3, 72 h); 10 µM in test [4] (Homo sapiens, 72 h).
On to `C=CC(=O)Nc1cc2c(Nc3cc(OC)c(Cl)cc3OC)ncnc2cc1OCCNC(C)=O` [Example 172, N-[7-(2-acetylamino-ethoxy)-4-(4-chloro-2,5-dimethoxy-phenylamino)-quinazolin-6-yl]-acrylamide], for which the IC50 in test [1] (Homo sapiens, 96 h) worked out at 125 nM; against VEGFR2 (KDR), 90 nM; against EGFR1 (HER-1) it was 87 nM; in test [2] (Homo sapiens, A-431, 72 h), 91 nM; in test [3] (Homo sapiens, SK-BR-3, 72 h), 3300 nM; in test [4] (Homo sapiens, 72 h), 10 µM.
Turning to `C=CC(=O)Nc1cc2c(Nc3ccc(Br)cc3F)ncnc2cc1OCCNC(=O)C(C)N` (stereo not drawn) [Example 173, N-[7-[2-(2-amino-propionylamino)-ethoxy]-4-(4-bromo-2-fluoro-phenylamino)-quinazolin-6-yl]-acrylamide], the IC50 worked out at 213 nM in test [1] (Homo sapiens, 96 h); 165 nM against VEGFR2 (KDR); 18 nM on EGFR1 (HER-1); 38 nM in test [2] (Homo sapiens, A-431, 72 h); 504 nM in test [3] (Homo sapiens, SK-BR-3, 72 h); 10 µM in test [4] (Homo sapiens, 72 h).
For “N-{2-[6-acryloylamino-4-(4-bromo-2,3-difluoro-phenylamino)-quinazolin-7-oxy]-ethyl}-4-dimethylamino-butylamide [Example 127]”, the IC50 in test [1] (96 hours) amounted to 676 nM; on VEGFR2 (KDR), 958 nM; against EGFR1 (HER-1), 568 nM; in test [2] (72 hours), 698 nM; in test [3] (72 hours) it was 1020 nM; in test [4] (72 hours), 6.51 µM.
In the case of “N-{2-[6-acryloylamino-4-(4-bromo-2-fluoro-phenylamino)-quinazolin-7-yloxy]-ethyl}-3-dimethylamino-butylamide [Example 75]”, the IC50 in test [1] (96 hours) worked out at 690 nM; at VEGFR2 (KDR), 658 nM; against EGFR1 (HER-1) it was 325 nM; in test [2] (72 hours), 452 nM; in test [3] (72 hours) it was 658 nM; in test [4] (72 hours), 2.66 µM.
As for “N-{2-[6-acryloylamino-4-(4-bromo-2-fluoro-phenylamino)-quinazolin-7-yloxy]-ethyl}-4-dimethylamino-butylamide [Example 66]”, the IC50 in test [1] (96 hours) was determined as 238 nM; at VEGFR2 (KDR) it was 125 nM; against EGFR1 (HER-1) it was 21 nM; in test [2] (72 hours), 11 nM; in test [3] (72 hours), 103 nM; in test [4] (72 hours), 10 µM.
As for “N-{2-[6-acryloylamino-4-(4-bromo-2-fluoro-phenylamino)-quinazolin-7-yloxy]-ethyl}-butylamide [Example 51]”, the IC50 in test [1] (96 hours) was determined as 987 nM; on VEGFR2 (KDR) it was 954 nM; against EGFR1 (HER-1), 32 nM; in test [2] (72 hours), 33 nM; in test [3] (72 hours) it was 194 nM; in test [4] (72 hours), 10 µM.
As to “N-{2-[6-acryloylamino-4-(4-bromo-2-fluoro-phenylamino)-quinazolin-7-yloxy]-ethyl}-malonic acid [Example 70]”, the IC50 was 365 nM in test [1] (96 hours); 279 nM on VEGFR2 (KDR); 956 nM at EGFR1 (HER-1); 973 nM in test [2] (72 hours); 10000 nM in test [3] (72 hours); 9.57 µM in test [4] (72 hours).
In the case of “N-{2-[6-acryloylamino-4-(4-bromo-3-chloro-2-fluoro-phenylamino)-quinazolin-7-yloxy]-ethyl}-4-dimethylamino-butylamide [Example 148]”, the IC50 came out at 348 nM in test [1] (96 hours); 206 nM on VEGFR2 (KDR); 28 nM at EGFR1 (HER-1); 30 nM in test [2] (72 hours); 40 nM in test [3] (72 hours); 2.32 µM in test [4] (72 hours).

For orientation: IC50 means the concentration that inhibits the measured activity by half. A low value points to greater potency.

The values above are taken from patent publication US8846699B2, “Quinazoline derivatives as a multiplex inhibitor and method for the preparation thereof” (Hanmi Pharm. Co., Ltd., priority 2005, dated 2014).
